Data on 3 compounds can be found in patent US20160022772A1, “Cytokine Receptors as Targets for Hypertension Therapy and Methods of Use” (Duke University, priority 2014, published 2016).

The test system of one series is NO generation. Kind of series: Blockade of NO generation with L-NAME in Ang II-infused WT and IL-1R KO mice, blood pressure. To be noted: L-NAME in drinking water from day 7 of Ang II, by day 14. It is filed as in vivo. The source says: Because IL-1 is secreted by macrophages, macrophage infiltration into the kidneys of the experimental animals was examined. After 4 weeks of hypertension, IL-1R KO kidneys contained more F4/80+ macrophages than WTs (18±1 vs. 14±2 per HPF; p=0.03). […] In turn, the KO group had enhanced renal mRNA expression of the NO-generating enzyme iNOS (1.7±0.3 vs. 1.0±0.2 au; p<0.05) and higher excretion of NO metabolites vs. WTs (152±46 vs. 60±15 nmol/mg Cr; p=0.05). NO inhibits renal sodium (Na) reabsorption, and during the 2″d wk of Ang II infusion when WT and KO BPs separated, only the KOs entered negative Na balance (−16.8±16.8 vs. WT 34.8±7.5 1-Jmol/day, p=0.01). To confirm that preserved NO bioavailability in the Ang 11-infused KOs led to their lower BP vs. WTs, we blocked NO generation in the groups with L-NAME starting on day 7 of Ang II when the WT and KO BPs were 179±3 vs. 165±6 mm Hg (p<0.01). By day 14, BPs converged (186±5 vs. 185±8; p=NS), (FIG. 2.) As NO is known to inhibit the NKCC2 sodium transporter in the kidney, NKCC2 activity at day 10 of Ang II was measured by quantitating urine sodium to creatinine ratios (UNa/UCr) 3 hours after an IP injection of saline with or without furosemide. […] Thus, reduced NKCC2 activity in the IL-1 R KOs protects them from Ang 11-induced sodium retention. […]

The test system of the next series is NKCC2. Kind of series: NKCC2 activity: 3-hour urine sodium to creatinine ratio after acute IP furosemide challenge at day 10 of Ang II. It is filed as in vivo, mice. To be noted: for urine sodium to creatinine ratio: 3-hour sodium excretion after IP furosemide. An excerpt: Because IL-1 is secreted by macrophages, macrophage infiltration into the kidneys of the experimental animals was examined. After 4 weeks of hypertension, IL-1R KO kidneys contained more F4/80+ macrophages than WTs (18±1 vs. 14±2 per HPF; p=0.03). […] In turn, the KO group had enhanced renal mRNA expression of the NO-generating enzyme iNOS (1.7±0.3 vs. 1.0±0.2 au; p<0.05) and higher excretion of NO metabolites vs. WTs (152±46 vs. 60±15 nmol/mg Cr; p=0.05). NO inhibits renal sodium (Na) reabsorption, and during the 2″d wk of Ang II infusion when WT and KO BPs separated, only the KOs entered negative Na balance (−16.8±16.8 vs. WT 34.8±7.5 1-Jmol/day, p=0.01). To confirm that preserved NO bioavailability in the Ang 11-infused KOs led to their lower BP vs. WTs, we blocked NO generation in the groups with L-NAME starting on day 7 of Ang II when the WT and KO BPs were 179±3 vs. 165±6 mm Hg (p<0.01). By day 14, BPs converged (186±5 vs. 185±8; p=NS), (FIG. 2.) As NO is known to inhibit the NKCC2 sodium transporter in the kidney, NKCC2 activity at day 10 of Ang II was measured by quantitating urine sodium to creatinine ratios (UNa/UCr) 3 hours after an IP injection of saline with or without furosemide. […] Thus, reduced NKCC2 activity in the IL-1 R KOs protects them from Ang 11-induced sodium retention.
Therefore, to examine NKCC2 activity in the groups at day 10 of Ang II when the differences in sodium excretion was noted, 3-hour sodium excretion was quantitated in response to an acute intraperitoneal (IP) furosemide challenge (FIG. 8). In response to IP saline injection alone, the IL-1RKO mice had exaggerated urine sodium to creatinine ratios, consistent with their enhanced natriuresis in original balance study (237±38 vs. 120±9%; p=0.016). […] Without being bound by a particular theory, it is believed that IL-1 receptor activation stimulates renal sodium reabsorption via NKCC2-mediated sodium transport during Ang II-dependent HTN.

The next series relates to Ang II-infused mice. Kind of series: Target organ damage (cardiac hypertrophy, albuminuria) in Ang II-induced hypertension. The series is classed as in vivo. Particulars: Ang II-infused mice treated with anakinra. As for the experimental part:
For example, the Ang 11-infused IL-1 R KO mice had less cardiac hypertrophy than WJ mice as measured by heart weight/body weight ratios (7.5±0.9 vs. 9.3±0.8 mg/g, p<0.001). Loss of albumin in the urine is a marker for kidney glomerular damage in humans, and Ang 11-infused IL-1 R KO mice had nearly 40% less in albuminuria than Ang 11-infused WT animals (5.90±0.93 vs. 9.38±1.43 mg/mg Cr; p=0.05). […] Thus, the lower blood pressures in IL-1 receptor-deficient mice led to reduced hypertensive damage to the heart and kidney.
Uni-nephrectomized IL-1 R-deficient(IL-1R KO) and wild-type (WT) mice was chronically infused with (1000 ng/kg/min) for 4 weeks using an implanted osmotic mini-pump after measurement of baseline blood pressures. The mice were then treated with vehicle or anakinra (50 mg/kg/day IP) once daily beginning 3 days prior to and continuing throughout the Ang II infusion period (FIG. 3). Blood pressure was monitored continuously using radiotelemetry.
Next, levels of albuminuria, which is a marker for kidney damage, were measured in Ang II-infused IL-1R Kos and wild type mice. It was observed that the levels of albuminuria were reduced by 37% in the IL1R KO mice vs. the wild type: 5899±929 vs. 9380±1423, n=9,10, p=0.052 (37.1% reduction); for 24 hour albuminuria, 3574 vs. 5082, p=0.0810 (30.4% reduction).

Series [1] has as its system wild-type mice in AngII-dependent hypertension model. Kind of series: Ang II-dependent hypertension model, blood pressure by radiotelemetry. The series is classed as in vivo. As to the method: To study the role of IL-1 receptor (IL-1 R) activation in hypertension, uni-nephrectomized IL-1 R-deficient(IL-1R KO) and wild-type (WT) mice was chronically infused with angiotensin II (Ang II; 1000 ng/kg/min) for 4 weeks using an implanted osmotic mini-pump after measurement of baseline blood pressures. Chronic angiotensin II infusion in rodents is a widely accepted model of hypertension that leads to the same complications in rodents as those seen in humans including cardiac hypertrophy and kidney damage. Unilateral nephrectomy renders the remaining kidney more susceptible to injury in this hypertension model. In the experiments of the disclosure baseline mean arterial pressures (MAPs) were similar between groups.
In the present disclosure, Anakinra was administered at 50 mg/kg/day IP to wild-type mice in AngII-dependent hypertension model.
FIG. 3B illustrates the effect of treatment with 50 mg/kg/day IP once daily beginning 3 days prior to and continuing throughout the Ang II infusion period.
Uni-nephrectomized IL-1 R-deficient(IL-1R KO) and wild-type (WT) mice was chronically infused with (1000 ng/kg/min) for 4 weeks using an implanted osmotic mini-pump after measurement of baseline blood pressures. […] Blood pressure was monitored continuously using radiotelemetry.

Series [2] has as its system patients with rheumatic diseases. Particulars: in vivo; cited from earlier work.

Entries after “also recorded” stand apart in the source; their conditions may differ.

`COC(=O)[C@@H](N)CCCNC(=N)N[N+](=O)[O-]` [L-NAME, L-Nitroarginine Methyl Ester]: the results for the “blood pressure following L-NAME treatment” value in the series on NO generation (IL-1R KO mice) and in the series with NO generation (WT mice) were 185±8 mm Hg and 186±5 mm Hg, respectively.

As to `NS(=O)(=O)c1cc(C(=O)O)c(NCc2ccco2)cc1Cl` [furosemide], the “urine sodium to creatinine ratio” value is recorded as 481±103% in the series on NKCC2 (IL-1R KO mice) and 453±56% with NKCC2 (WT mice). The “urine sodium to creatinine ratio (UNa/UCr)” value with NKCC2 (WT mice, 3 hours after IP furosemide) is reported as 453±60 mmollmmol.

On to “Anakinra: recombinant, nonglycosylated form of the human interleukin-1 receptor antagonist (IL-1Ra) with an added N-terminal methionine, 153 amino acids”, for which the “decrease in cardiac hypertrophy” value in the series with Ang II-infused mice (FIG. 9A) is given as “as profound as that seen in the IL-1R KO mice”. For the same compound, the decrease in albuminuria result in the series on Ang II-infused mice (FIG. 9B) is “as profound as that seen in the IL-1R KO mice”. Besides, the “ability to limit blood pressure elevation / protection from hypertension” value in series [1] (50 mg/kg/day IP once daily, during Ang II infusion (1000 ng/kg/min)) is recorded as “as robust as genetic deletion of the receptor; also recorded: as profound as that seen in the IL-1R KO mice”. In addition, in series [1] (50 mg/kg/day IP, before Ang II infusion (Pre)), the “effect on baseline blood pressure” value was “no impact; also recorded: no effect”. Besides, in series [2], the “hypotension in clinical trials” value is reported as “lack of hypotension”.
